In PubChem BioAssay AID1918993 (Molecular Pharmacology Branch, DTP, NCI, 2023):
pIC50: −log10 of the molar value.

System: 233499-124-R-J3-PDC complex spheroid growth
Test: Anticancer human tumor 233499-124-R-J3-PDC patient-derived colon adenocarcinoma cell line growth inhibition [AhR]
Conditions: for pIC50: curve of first compound; for viability, T/C: stronger effect = lower value
Procedure, shortened: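 Spheroids combined tumor cells with HUVEC endothelial cells and human MSCs as stroma. AhR antagonists were paired with standard or investigational drugs, each dosed in half-log steps down from near clinical Cmax, or from 10 microM where Cmax was unknown.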

[1] = second compound 0.1 µM, first compound 0.0316 µM
[2] = second compound 0.1 µM, first compound 0.1 µM
[3] = second compound 0.316 µM, first compound 0.0316 µM
[4] = second compound 0.316 µM, first compound 0.1 µM
[5] = second compound 1 µM, first compound 0.0316 µM
[6] = second compound 1 µM, first compound 0.1 µM
[7] = second compound 3.16 µM, first compound 0.0316 µM
[8] = second compound 3.16 µM, first compound 0.1 µM
[9] = second compound 10 µM, first compound 0.0316 µM
[10] = second compound 10 µM, first compound 0.1 µM
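Further: spheroids exposed to agents for seven days before reading.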

CC1(C)CCC(CN2CCN(c3ccc(C(=O)NS(=O)(=O)c4ccc(NCC5CCOCC5)c([N+](=O)[O-])c4)c(Oc4cnc5[nH]ccc5c4)c3)CC2)=C(c2ccc(Cl)cc2)C1 + Cc1ccccc1N=Nc1ccc(NC(=O)c2ccnn2C)c(C)c1
pIC50 (second compound 0.1 µM): < 5.00
pIC50 (second compound 0.316 µM): 5.06
pIC50 (second compound 1 µM): 5.03
pIC50 (second compound 3.16 µM): 5.13
pIC50 (second compound 10 µM): 5.14
viability, T/C [1]: 94.8%
viability, T/C [2]: 116%
viability, T/C (second compound 0.1 µM, first compound 0.316 µM): 102%
viability, T/C (second compound 0.1 µM, first compound 1 µM): 108%
viability, T/C (second compound 0.1 µM, first compound 3.16 µM): 117%
viability, T/C (second compound 0.1 µM, first compound 10 µM): 51.5%
viability, T/C [3]: 111%
viability, T/C [4]: 110%
viability, T/C (second compound 0.316 µM, first compound 0.316 µM): 97%
viability, T/C (second compound 0.316 µM, first compound 1 µM): 112%
viability, T/C (second compound 0.316 µM, first compound 3.16 µM): 118%
viability, T/C (second compound 0.316 µM, first compound 10 µM): 41.8%
viability, T/C [5]: 104%
viability, T/C [6]: 106%
viability, T/C (second compound 1 µM, first compound 0.316 µM): 97.6%
viability, T/C (second compound 1 µM, first compound 1 µM): 122%
viability, T/C (second compound 1 µM, first compound 3.16 µM): 122%
viability, T/C (second compound 1 µM, first compound 10 µM): 45.5%
viability, T/C [7]: 102%
viability, T/C [8]: 97.7%
viability, T/C (second compound 3.16 µM, first compound 0.316 µM): 104%
viability, T/C (second compound 3.16 µM, first compound 1 µM): 99.4%
viability, T/C (second compound 3.16 µM, first compound 3.16 µM): 113%
viability, T/C (second compound 3.16 µM, first compound 10 µM): 32.2%
viability, T/C [9]: 121%
viability, T/C [10]: 99.3%
viability, T/C (second compound 10 µM, first compound 0.316 µM): 112%
viability, T/C (second compound 10 µM, first compound 1 µM): 107%
viability, T/C (second compound 10 µM, first compound 3.16 µM): 109%
viability, T/C (second compound 10 µM, first compound 10 µM): 26.6%

CCN(c1cc(-c2ccc(CN3CCOCC3)cc2)cc(C(=O)NCc2c(C)cc(C)[nH]c2=O)c1C)C1CCOCC1 + Cc1ccccc1N=Nc1ccc(NC(=O)c2ccnn2C)c(C)c1
pIC50 (second compound 0.1 µM): < 5.52
pIC50 (second compound 0.316 µM): < 5.52
pIC50 (second compound 1 µM): < 5.52
pIC50 (second compound 3.16 µM): < 5.52
pIC50 (second compound 10 µM): < 5.52
viability, T/C (second compound 0.1 µM, first compound 0.00949 µM): 99.3%
viability, T/C (second compound 0.1 µM, first compound 0.03 µM): 98%
viability, T/C (second compound 0.1 µM, first compound 0.0949 µM): 95.1%
viability, T/C (second compound 0.1 µM, first compound 0.3 µM): 97.1%
viability, T/C (second compound 0.1 µM, first compound 0.949 µM): 97.2%
viability, T/C (second compound 0.1 µM, first compound 3 µM): 102%
viability, T/C (second compound 0.316 µM, first compound 0.00949 µM): 88%
viability, T/C (second compound 0.316 µM, first compound 0.03 µM): 95.8%
viability, T/C (second compound 0.316 µM, first compound 0.0949 µM): 100%
viability, T/C (second compound 0.316 µM, first compound 0.3 µM): 95.3%
viability, T/C (second compound 0.316 µM, first compound 0.949 µM): 98.3%
viability, T/C (second compound 0.316 µM, first compound 3 µM): 96.6%
viability, T/C (second compound 1 µM, first compound 0.00949 µM): 107%
viability, T/C (second compound 1 µM, first compound 0.03 µM): 97.6%
viability, T/C (second compound 1 µM, first compound 0.0949 µM): 104%
viability, T/C (second compound 1 µM, first compound 0.3 µM): 93.1%
viability, T/C (second compound 1 µM, first compound 0.949 µM): 92.3%
viability, T/C (second compound 1 µM, first compound 3 µM): 100%
viability, T/C (second compound 3.16 µM, first compound 0.00949 µM): 95.1%
viability, T/C (second compound 3.16 µM, first compound 0.03 µM): 93.9%
viability, T/C (second compound 3.16 µM, first compound 0.0949 µM): 105%
viability, T/C (second compound 3.16 µM, first compound 0.3 µM): 91.7%
viability, T/C (second compound 3.16 µM, first compound 0.949 µM): 92.6%
viability, T/C (second compound 3.16 µM, first compound 3 µM): 93.7%
viability, T/C (second compound 10 µM, first compound 0.00949 µM): 101%
viability, T/C (second compound 10 µM, first compound 0.03 µM): 96.1%
viability, T/C (second compound 10 µM, first compound 0.0949 µM): 91.8%
viability, T/C (second compound 10 µM, first compound 0.3 µM): 92.7%
viability, T/C (second compound 10 µM, first compound 0.949 µM): 93.9%
viability, T/C (second compound 10 µM, first compound 3 µM): 99.5%

Cn1ncnc1C1c2n[nH]c(=O)c3cc(F)cc(c23)NC1c1ccc(F)cc1 (stereo not given) + Cc1ccccc1N=Nc1ccc(NC(=O)c2ccnn2C)c(C)c1
pIC50 (second compound 0.1 µM): < 7.00
pIC50 (second compound 0.316 µM): < 7.00
pIC50 (second compound 1 µM): < 7.00
pIC50 (second compound 3.16 µM): < 7.00
pIC50 (second compound 10 µM): < 7.00
viability, T/C (second compound 0.1 µM, first compound 0.000316 µM): 104%
viability, T/C (second compound 0.1 µM, first compound 0.001 µM): 107%
viability, T/C (second compound 0.1 µM, first compound 0.00316 µM): 110%
viability, T/C (second compound 0.1 µM, first compound 0.01 µM): 110%
viability, T/C [1]: 99.2%
viability, T/C [2]: 106%
viability, T/C (second compound 0.316 µM, first compound 0.000316 µM): 93%
viability, T/C (second compound 0.316 µM, first compound 0.001 µM): 105%
viability, T/C (second compound 0.316 µM, first compound 0.00316 µM): 106%
viability, T/C (second compound 0.316 µM, first compound 0.01 µM): 101%
viability, T/C [3]: 95.8%
viability, T/C [4]: 94.7%
viability, T/C (second compound 1 µM, first compound 0.000316 µM): 108%
viability, T/C (second compound 1 µM, first compound 0.001 µM): 113%
viability, T/C (second compound 1 µM, first compound 0.00316 µM): 103%
viability, T/C (second compound 1 µM, first compound 0.01 µM): 101%
viability, T/C [5]: 99%
viability, T/C [6]: 109%
viability, T/C (second compound 3.16 µM, first compound 0.000316 µM): 95.6%
viability, T/C (second compound 3.16 µM, first compound 0.001 µM): 102%
viability, T/C (second compound 3.16 µM, first compound 0.00316 µM): 90.3%
viability, T/C (second compound 3.16 µM, first compound 0.01 µM): 97.2%
viability, T/C [7]: 94.9%
viability, T/C [8]: 99.2%
viability, T/C (second compound 10 µM, first compound 0.000316 µM): 109%
viability, T/C (second compound 10 µM, first compound 0.001 µM): 110%
viability, T/C (second compound 10 µM, first compound 0.00316 µM): 109%
viability, T/C (second compound 10 µM, first compound 0.01 µM): 98.7%
viability, T/C [9]: 89.8%
viability, T/C [10]: 98.9%
